These compounds were tested against T1, human PAD4 (Homo sapiens, UniProt Q9UM07) (assay: In vitro PAD4 BAEE biochemical assay). Conditions: BAEE substrate 3 mM, 5 nM PAD4, 2 mM calcium chloride; geometric mean of multiple experiments.
T1 construct: human PAD4 (NM_012387), A2-P663, was PCR amplified; His-SUMO (N, cleaved yes); made in house; host or cells: E. coli BL21(DE3)
Summary of the method: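 Ammonia produced by BAEE deimination (3 mM substrate, 2 h, 25 °C) was read as fluorescent isoindole after o-phthalaldehyde/DTT derivatization, ex 405 nm/em 535 nm. Human PAD4 at 5 nM final, 2 mM calcium, pH 7.6 MOPS; compound preincubated 30 min. IC50s, normalized to BB-Cl-Amidine and DMSO controls, were geometric-mean averaged.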

T1 sequence (Q9UM07 2-663): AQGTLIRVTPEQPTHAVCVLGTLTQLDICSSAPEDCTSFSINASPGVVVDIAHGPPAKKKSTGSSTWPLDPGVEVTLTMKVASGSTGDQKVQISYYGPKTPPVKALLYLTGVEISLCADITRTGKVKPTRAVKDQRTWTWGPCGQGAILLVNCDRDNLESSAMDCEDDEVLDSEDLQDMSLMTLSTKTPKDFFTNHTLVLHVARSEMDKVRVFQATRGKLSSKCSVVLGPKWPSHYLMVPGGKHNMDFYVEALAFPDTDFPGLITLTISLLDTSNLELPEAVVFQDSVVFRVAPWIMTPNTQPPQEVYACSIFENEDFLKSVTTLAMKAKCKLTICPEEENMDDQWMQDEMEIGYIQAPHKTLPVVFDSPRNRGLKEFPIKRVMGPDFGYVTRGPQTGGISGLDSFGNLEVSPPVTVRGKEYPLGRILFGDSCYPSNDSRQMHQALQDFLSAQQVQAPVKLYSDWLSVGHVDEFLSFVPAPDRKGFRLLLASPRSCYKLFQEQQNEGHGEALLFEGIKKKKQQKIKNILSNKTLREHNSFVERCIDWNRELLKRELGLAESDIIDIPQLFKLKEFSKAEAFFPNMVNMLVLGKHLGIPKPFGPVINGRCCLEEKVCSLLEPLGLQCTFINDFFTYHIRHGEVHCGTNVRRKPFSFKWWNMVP

| IC50 [nM] | Structure (SMILES) |
| --- | --- |
| 1160 | COc1cc(C(=O)N2CC[C@@H](CO)[C@H](N)C2)cc2nc(-c3cc4ccc5nc4n3CCCCCCC(C)(C)C(=O)N[C@@H]5C)n(C)c12 [Example 66, (11˜{R})-17-[5-[(3˜{S},4˜{R})-3-amino-4-(hydroxymethyl)piperidine-1-carbonyl]-7-methoxy-1-methyl-benzimidazol-2-yl]-8,8,11-trimethyl-1,10,19-triazatricyclo[10.5.2.0^{15,18}]nonadeca-12(19),13,15(18),16-tetraen-9-one] |
| 140 | COc1cc(C(=O)N2CC[C@@H](OC)[C@@H](N)C2)cc2nc(-c3cc4ccc5nc4n3CCCCCc3cc4ccccc4nc3C(=O)N[C@@H]5C)n(C)c12 [Example 731, (2~{R})-21-[5-[(3~{S},4~{R})-3-amino-4-methoxy-piperidine-1-carbonyl]-7-methoxy-1-methyl-benzimidazol-2-yl]-2-methyl-3,6,20,26-tetrazapentacyclo[18.5.2.0^ {5,14}.0^{7,12}.0^{23,27}] heptacosa-1(26),5(14), 6,8,10,12,21,23(27),24-nonaen-4-one] |
| 174 | COc1cc(C(=O)N2C[C@H]3CC[C@@H]2[C@@H]3N)cc2nc(-c3cc4ccc5nc4n3CCCCCC[C@@](C)(C(F)(F)F)C(=O)N[C@@H]5C)n(C)c12 [Example 722, (8~{R},11~{R})-17-[5-[(1~{R},4~{R},7~{R})-7-amino-2-azabicyclo [2.2.1]heptane-2-carbonyl]-7-methoxy-1-methyl-benzimidazol-2-yl]-8,11-dimethyl-8-(trifluoromethyl)-1,10,19-triazatricyclo [10.5.2.0^{15,18}]nonadeca-12(19),13,15(18),16-tetraen-9-one] |
| 67 | COc1cc(C(=O)N2C[C@H](N)[C@@H]3CC[C@H]2C3)cc2nc(-c3cc4ccc5nc4n3CC(F)(F)CCCOC3(CC3)C(=O)N[C@@H]5C)n(C)c12 [Example 761, (11~{R})-17-[5-[(1~{S},4~{R}, 5~{R})-4-amino-2-azabicyclo [3.2.1]octane-2-carbonyl]-7-methoxy-1-methyl-benzimidazol-2-yl]-3,3-difluoro-11-methyl-spiro[7-oxa-1,10,19-triazatricyclo[10.5.2.0^ {15,18}]nonadeca-12(19), 13,15(18),16-tetraene-8,1′-cyclopropane]-9-one] |
| 30 | COc1cc(C(=O)N2[C@@H]3CC[C@@H](N)[C@H]2CC3)cc2nc(-c3cc4ccc5nc4n3CC(F)(F)CCC[C@@H]3C[C@H]3C(=O)N[C@@H]5C)n(C)c12 [Example 752, (2~{R},5~{R},7~{R})-14-[5-[(1~{R},2~{R},5~{R})-2-amino-8-azabicyclo[3.2.1]octane-8-carbonyl]-7-methoxy-1-methyl-benzimidazol-2-yl]-11,11-difluoro-2-methyl-3,13,19-triazatetracyclo[11.5.2.0^ {5,7}.0^{16,20}]icosa-1(19),14,16(20),17-tetraen-4-one] |
| 64 | COc1cc(C(=O)N2C[C@H](N)CCN2C)cc2nc(-c3cc4ccc5nc4n3CCCCCc3ccccc3C(=O)N[C@@H]5C)n(C)c12 [Example 44, (2~{R})-17-[5-[(5~{R})-5-amino-2-methyl-hexahydropyridazine-1-carbonyl]-7-methoxy-1-methyl-benzimidazol-2-yl]-2-methyl-3,16,22-triazatetracyclo[14.5.2.0^{5,10}.0^{19,23}] tricosa-1(22),5,7,9,17,19(23),20-heptaen-4-one] |
| 53 | COc1cc(C(=O)N2CCC[C@@H](N)C2)cc2nc(-c3cc4ccc5nc4n3C[C@H]3C[C@@H]3CCCC(C)(C)C(=O)N[C@@H]5C)n(C)c12 [Example 292, (3~{S),5~{S},12~{R})-18-[5-[(3~{R})-3-aminopiperidine-1-carbonyl]-7-methoxy-1-methyl-benzimidazol-2-yl]-9,9,12-trimethyl-1,11,20-triazatetracyclo[11.5.2.0^{3,5}.0^{16,19}] icosa-13(20),14,16(19),17-tetraen-10-one] |
| 10 | COc1cc(C(=O)N2C[C@H](N)[C@@H]3CC[C@H]2C3)cc2nc(-c3cc4ccc5nc4n3CCCCCc3nc(C(F)F)ccc3C(=O)N[C@@H]5C)n(C3CC3)c12 [Example 819, (2~{R})-17-[5-[(1~{S},4~{R}, 5~{R})-4-amino-2-azabicyclo [3.2.1]octane-2-carbonyl]-1-cyclopropyl-7-methoxy-benzimidazol-2-yl]-8-(difluoromethyl)-2-methyl-3,9,16,22-tetrazatetracyclo[14.5.2.0^ {5,10}.0^{19,23}] tricosa-1(21),5(10),6,8,17, 19,22-heptaen-4-one] |
| 38 | COc1cc(C(=O)N2C[C@H](N)[C@@H]3CC[C@H]2C3)cc2nc(-c3cc4ccc5nc4n3CCCc3ccc4cccc(c4c3)C(=O)N[C@@H]5C)n(C)c12 [Example 950, (4~{R})-10-[5-[(1~{S},4~{R},5~ {R})-4-amino-2-azabicyclo [3.2.1]octane-2-carbonyl]-7-methoxy-1-methyl-benzimidazol-2-yl]-4-methyl-3,6,11-triazapentacyclo [13.6.2.2^{5,8}.0^{7,11}.0^ {18,22}]pentacosa-1(22),5,7,9, 15(23),16,18,20,24-nonaen-2-one] |
| 51 | COc1cc(C(=O)N2CCC[C@@H](N)C2)cc2nc(-c3cc4ccc5nc4n3C[C@H]3C[C@@H]3CCCCC(=O)N[C@@H]5C)n(C)c12 [Example 163, (3~{S},5~{S},12~{R})-18-[5-[(3~{R})-3-aminopiperidine-1-carbonyl]-7-methoxy-1-methyl-benzimidazol-2-yl]-12-methyl-1,11,20-triazatetracyclo[11.5.2.0^{3,5}.0^{16,19}] icosa-13(20),14,16(19),17-tetraen-10-one] |
| 101 | COc1cc(C(=O)N2CC[C@@H](OC(F)F)[C@@H](N)C2)cc2nc(-c3cc4ccc5nc4n3CCCCCc3nccnc3C(=O)N[C@@H]5C)n(C)c12 [Example 7, (2~{R})-17-[5-[(3~{S},4~{R})-3-amino-4-(difluoromethoxy)piperidine-1-carbonyl]-7-methoxy-1-methyl-benzimidazol-2-yl]-2-methyl-3,6,9,16,22-pentazatetracyclo[14.5.2.0^{5,10}.0^{19, 23}]tricosa-1(22),5(10),6,8,17,19(23),20-heptaen-4-one] |
| 28 | COc1cc(C(=O)N2[C@H]3CC[C@@H]2[C@H](N)C3)cc2nc(-c3cc4ccc5nc4n3CCCCOCCC(=O)N3CCC[C@H]53)n(C)c12 [Example 132, (2~{R})-16-[5-[(1~{R},2~{R),4~{S})-2-amino-7-azabicyclo[2.2.1]heptane-7-carbonyl]-7-methoxy-1-methyl-benzimidazol-2-yl]-10-oxa-6,15,21-triazatetracyclo[13.5.2.0^{2,6}.0^{18,22}] docosa-1(21),16,18(22),19-tetraen-7-one] |
| 31 | CO[C@@H]1CCN(C(=O)c2cc(F)c3c(c2)nc(-c2cc4ccc5nc4n2CCCCC[C@]2(F)C[C@H]2C(=O)N[C@@H]5C)n3C2CC2)C[C@@H]1N [Example 704, (2~{R},5~{S},7~{S})-14-[5-[(3~{S},4~{R})-3-amino-4-methoxy-piperidine-1-carbonyl]-1-cyclopropyl-7-fluoro-benzimidazol-2-yl]-7-fluoro-2-methyl-3,13,19-triazatetracyclo[11.5.2.0^ {5,7}.0^{16,20}]icosa-1(19), 14,16(20),17-tetraen-4-one] |

Reference: patent US11976083B2, “Inhibitors of peptidylarginine deiminases” (Gilead Sciences, Inc., priority 2020, dated 2024)
